A short description of data set [1]: Ordinary stability of QC samples (room temperature for 8 h). The data set is classed as physicochemical, rat. The following applies: plasma QC, room temperature 8 h. The method, then:
(§1) Aliquots of 100 μL plasma samples were mixed with 10 μL I.S. samples (1 μg/mL, in MeOH), then added with 500 μL ACN, respectively, and vortexed for 5 min, centrifugated at 10,000 rpm for 10 min, the supernatants were transferred into clean vials and dried in a vacuum centrifugal concentrator at 1200 rpm, 37 °C. After that, 100 μL ACN was added and ultrasonic (frequency 40 kHz, power 250 W) extracted for 5 min to dissolve the dry residue, vortexed for 1 min and centrifugated at 10,000 rpm for 5 min, 1 μL of each final supernatant was injected into UFLC–MS/MS for analysis.
(§2) Six replicates of low, medium and high concentrations of quality control (QC) samples were used to verify the stabilities under different conditions including: place at room temperature for 8 h, freeze (− 20 °C) and thaw for three times, and store at − 20 °C for 20 days.

A short description of data set [2]: Long-term stability of QC samples (−20 °C for 20 days). The format is physicochemical, rat. The following applies: plasma QC. The method, then: as §1, §2
The nature of data set [3]: Freeze–thaw stability of QC samples (−20 °C, three times). The format is physicochemical, rat. The settings on record: plasma QC, freeze (−20 °C) and thaw three times. As to the method: as §1, §2
Data set [4] is described as follows: Pharmacokinetic study in rat plasma after oral administration of FKQJF extract (UFLC–MS/MS). The format is in vivo, Sprague-Dawley (SD) rats. The following applies: for AUC(0-inf) / AUC(0-t) / Cmax / half-life / MRT last / MRT inf / Tmax: oral FKQJF extract, single dose 3.2 g/kg, mean ± SD; for MRT last: read-out: MRT0→t; for MRT inf: read-out: MRT0→∞. As to the method: as §1
An 8050 UFLC–MS/MS system equipped with LC-30A binary pump, a SIL-30AC autosampler, a SPD-M30A PDA detector, a CTO-20AC column oven, and a 8050 triple quadrupole mass spectrometer with an electrospray ionization source (ESI) was applied to detect and quantify FKQJF compounds in plasma samples. Data were acquired and processed with the software LabSolution (Ver. 5.6).
A Kinetex XB-C18 HPLC column (100 × 2.1 mm, 2.6 μm) linked with an equivalent guard column was used for chromatographic separation. The aqueous phase contained 0.2% formic acid was used as mobile phase A, and organic phase ACN as mobile phase B. The gradient elution method using in this program was: 3–5 min, 28–31% B; 5–7 min, 31–34% B; 7–9 min, 34–65% B; 9–10 min, 65–95% B; 10–11.5 min, 95% B. The flow rate of mobile phase, column temperature and autosampler temperature was 0.4 mL/min, 30 °C and 4 °C, respectively. The injection volume of each sample was set as 1 μL. The main MS spectrum parameters were set as follows: the flow rate of drying gas (N2) was 10.0 L/min; the atomized gas was 3.0 L/min and the heating gas flow rate was 10.0 L/min. The main temperatures of interface, desolvation and heat block was 300 °C, 250 °C and 400 °C, respectively. And, the interface and detector voltage were 3 kV and 1.8 kV.
Rats were divided into a blank group and a FKQJF administration group (6 rats for each), and fasted for 24 h. Each rat of the administration group was given FKQJF extract suspension at a single dose of 3.2 g FKQJF/kg body weight through oral administration in parallel. Blood samples (0.25 mL) were gathered from the orbital venous plexus of each rat, with FKQJF group gathered at 14 serial timepoints (6 rats for each) as 0.083 h, 0.16 h, 0.33 h, 0.5 h, 0.75 h, 1.0 h, 1.5 h, 2 h, 3 h, 4 h, 6 h, 8 h, 12 h and 24 h after drug administration. The blood samples were centrifugated at 6000g for 10 min to isolate plasma and stored at − 20 °C for further analysis.
Data were analyzed using the Drug and Statistics (DAS) Software version 2.0 (DAS 2.0, Mathematical Pharmacology Professional Committee of China, Shanghai, China). The non-compartmental mode was applied to obtain the following PK parameters: area under the plasma concentration–time curve from time zero to the time of last quantifiable concentration (AUC0→t) and area under the plasma concentration–time curve to time infinity (AUC0→∞), the elimination half-life (t1/2), mean retention time to last sampling time (MRT0→t) and mean retention time to infinity (MRT0→∞). The maximum plasma concentration (Cmax) and the time to maximum concentration (Tmax) were observed directly from the concentration–time (C–T) curves and measured data. All data are presented as mean ± SD.

Where [5] appears, read: oral FKQJF extract 3.2 g/kg, post dose.

The values that follow come from PMC7382147, “An effective UFLC–MS/MS method used to study pharmacokinetics of major constituents of Fukeqianjin formula in rat plasma” (Chinese Medicine, 2020).

Like-named read-outs stand apart in the source and are kept apart here.

For `O=C1C[C@@H](c2ccc(O)cc2)Oc2cc(O)cc(O)c21` [Analyte 14, naringenin], the figures for the “Ordinary stability Mean” value in data set [1] (spiked 50 ng/mL), in data set [1] (spiked 250 ng/mL) and in data set [1] (spiked 500 ng/mL) were 80.39%, 92.68% and 101.11%, respectively. The “Long-term stability Mean” value is reported as 91.66% in data set [2] (spiked 50 ng/mL), 103.10% in data set [2] (spiked 250 ng/mL) and 99.51% in data set [2] (spiked 500 ng/mL). In addition, the “Freeze–thaw stability Mean” value in data set [3] (spiked 50 ng/mL) came to 88.34%; in data set [3] (spiked 250 ng/mL), 116.86%; in data set [3] (spiked 500 ng/mL), 84.71%. In data set [4] (Sprague-Dawley), this compound showed an AUC(0-inf) of 206 ± 58.7 ng·h/mL. In addition, the area under the curve AUC(0-t) in data set [4] (Sprague-Dawley) worked out at 144 ± 16.5 ng·h/mL. Moreover, the highest level in data set [4] (Sprague-Dawley) (Cmax) was 67.7 ± 27.6 ng/mL. In data set [4] (Sprague-Dawley), the half-life is 12.1 ± 9.32 h. Also, the MRT last in data set [4] (Sprague-Dawley) amounted to 6.67 ± 1.42 h. The MRT inf in data set [4] (Sprague-Dawley) was 17 ± 8.17 h. Further, the time of peak concentration (Tmax) in data set [4] was found to be 2.00 ± 0.00 h.

With `C=C1CC[C@@H]2[C@](C)(CO)[C@H](O)CC[C@@]2(C)[C@@H]1/C=C/C1=CCOC1=O` [Analyte 15, 14-deoxy-11,12-didehydro-andrographolide], the results for the “Ordinary stability Mean” value in data set [1] (spiked 60 ng/mL), in data set [1] (spiked 300 ng/mL) and in data set [1] (spiked 600 ng/mL) were 89.92%, 119.43% and 82.90%, respectively. Moreover, the figures for the “Long-term stability Mean” value in data set [2] (spiked 60 ng/mL), in data set [2] (spiked 300 ng/mL) and in data set [2] (spiked 600 ng/mL) were 100.55%, 98.43% and 88.35%, respectively. The “Freeze–thaw stability Mean” value is 114.11% in data set [3] (spiked 60 ng/mL), 105.94% in data set [3] (spiked 300 ng/mL) and 118.41% in data set [3] (spiked 600 ng/mL). For the same compound, in data set [4] (Sprague-Dawley), the total exposure AUC(0-inf) turned out to be 81.1 ± 19.4 ng·h/mL. Further, in data set [4] (Sprague-Dawley), the AUC(0-t) worked out at 74.3 ± 17.5 ng·h/mL. The Cmax in data set [4] (Sprague-Dawley) was 47.7 ± 5.92 ng/mL. The same compound gave a half-life in data set [4] (Sprague-Dawley) of 1.2 ± 0.74 h. In data set [4] (Sprague-Dawley), the MRT last was 2.21 ± 0.48 h. Also, in data set [4] (Sprague-Dawley), the MRT inf stood at 3.05 ± 1.01 h. Also, the Tmax in data set [4] (Sprague-Dawley, read-out: Tmax) was 1.42 ± 0.63 h. For the same compound, in data set [4] (oral FKQJF extract 3.2 g/kg), the “shape of the plasma concentration–time curve” value (“shape” for short) is on record as “double-peaks”. In addition, the “time of first peak of the concentration–time curve” value in data set [4] (setting [5]) lay within 0 to 1 h. For the same compound, the “time of second peak of the concentration–time curve” value in data set [4] (setting [5]) lay in the range of 1.5 to 3 h.

For `COc1ccccc1-c1cc(=O)c2c(O)cc(OC)c(OC)c2o1` [Analyte 16, panicolin], the results for the “Ordinary stability Mean” value in data set [1] (spiked 50 ng/mL), in data set [1] (spiked 250 ng/mL) and in data set [1] (spiked 500 ng/mL) were 83.35%, 92.98% and 88.55%, respectively. Moreover, the “Long-term stability Mean” value in data set [2] (spiked 50 ng/mL) is reported as 105.80%; in data set [2] (spiked 250 ng/mL) it was 89.82%; in data set [2] (spiked 500 ng/mL) it was 95.48%. Further, the “Freeze–thaw stability Mean” value in data set [3] (spiked 50 ng/mL) was 105.76%; in data set [3] (spiked 250 ng/mL), 108.03%; in data set [3] (spiked 500 ng/mL), 95.34%. In data set [4] (Sprague-Dawley), this compound yielded a total exposure AUC(0-inf) of 251 ± 97.6 ng·h/mL. Besides, the exposure AUC(0-t) in data set [4] (Sprague-Dawley) came out at 177 ± 17.1 ng·h/mL. Also, the highest level in data set [4] (Sprague-Dawley) (Cmax) was 31.4 ± 6.94 ng/mL. Besides, the half-life in data set [4] (Sprague-Dawley) is 12.6 ± 12.7 h. In addition, in data set [4] (Sprague-Dawley), the MRT last was determined as 8.68 ± 1.17 h. Moreover, the MRT inf in data set [4] (Sprague-Dawley) was 20.1 ± 5.01 h. Further, in data set [4] (Sprague-Dawley, read-out: Tmax), the Tmax amounted to 2 h. In addition, the “shape” value in data set [4] (oral FKQJF extract 3.2 g/kg) was “double-peaks”.

For the compound `C=C1CC[C@@H]2[C@](C)(CO)CCC[C@@]2(C)[C@@H]1CCC1=CCOC1=O` [Analyte 17, andrograpanin], the “Ordinary stability Mean” value came out at 81.80% in data set [1] (spiked 60 ng/mL), 117.99% in data set [1] (spiked 300 ng/mL) and 89.06% in data set [1] (spiked 600 ng/mL). Further, the “Long-term stability Mean” value was 87.43% in data set [2] (spiked 60 ng/mL), 90.66% in data set [2] (spiked 300 ng/mL) and 117.51% in data set [2] (spiked 600 ng/mL). The “Freeze–thaw stability Mean” value in data set [3] (spiked 60 ng/mL) amounted to 82.73%; in data set [3] (spiked 300 ng/mL), 86.68%; in data set [3] (spiked 600 ng/mL), 115.83%. In data set [4] (Sprague-Dawley), the AUC(0-inf) was 179 ± 14.3 ng·h/mL. The AUC(0-t) in data set [4] (Sprague-Dawley) is 161 ± 12.7 ng·h/mL. The Cmax in data set [4] (Sprague-Dawley) amounted to 19.2 ± 2.48 ng/mL. In data set [4] (Sprague-Dawley), this compound had a half-life of 5.98 ± 0.4 h. Moreover, the MRT last in data set [4] (Sprague-Dawley) was 7.3 ± 0.38 h. Further, in data set [4] (Sprague-Dawley), the MRT inf came out at 9.82 ± 0.45 h. Besides, the Tmax in data set [4] (Sprague-Dawley, read-out: Tmax) amounted to 3.33 ± 2.31 h. Further, the “shape” value in data set [4] (oral FKQJF extract 3.2 g/kg) is listed as “double-peaks”.

With `CCC/C=C1\OC(=O)C2=C1CCC=C2` [Analyte 18, Z-ligustilide], the “Ordinary stability Mean” value in data set [1] (spiked 20 ng/mL) is 107.46%; in data set [1] (spiked 200 ng/mL) it was 86.65%; in data set [1] (spiked 400 ng/mL), 106.31%. Also, the results for the “Long-term stability Mean” value in data set [2] (spiked 20 ng/mL), in data set [2] (spiked 200 ng/mL) and in data set [2] (spiked 400 ng/mL) were 114.56%, 86.82% and 118.76%, respectively. The results for the “Freeze–thaw stability Mean” value in data set [3] (spiked 20 ng/mL), in data set [3] (spiked 200 ng/mL) and in data set [3] (spiked 400 ng/mL) were 88.16%, 112.10% and 104.63%, respectively. In data set [4] (Sprague-Dawley), this compound yielded an area under the curve AUC(0-inf) of 194 ± 27.9 ng·h/mL. Moreover, the area under the curve AUC(0-t) in data set [4] (Sprague-Dawley) was determined as 74.7 ± 8.31 ng·h/mL. The same compound had a Cmax in data set [4] (Sprague-Dawley) of 10.2 ± 0.58 ng/mL. In data set [4] (Sprague-Dawley), the half-life was 33.6 ± 27.1 h. Besides, the MRT last in data set [4] (Sprague-Dawley) turned out to be 9.85 ± 0.85 h. Further, in data set [4] (Sprague-Dawley), the MRT inf was determined as 48.2 ± 39.8 h. Moreover, the time to peak (Tmax) in data set [4] (Sprague-Dawley, read-out: Tmax) was determined as 1.83 ± 0.29 h. The “shape” value in data set [4] (oral FKQJF extract 3.2 g/kg) is “double-peaks”.

For `COc1cc(O)c2c(=O)cc(-c3ccccc3)oc2c1OC` [Analyte 19, 7-O-methylwogonin], the “Ordinary stability Mean” value in data set [1] (spiked 10 ng/mL) was 96.33%; in data set [1] (spiked 150 ng/mL), 80.66%; in data set [1] (spiked 300 ng/mL) it was 96.04%. For the same compound, the “Long-term stability Mean” value in data set [2] (spiked 10 ng/mL) was determined as 116.14%; in data set [2] (spiked 150 ng/mL) it was 84.29%; in data set [2] (spiked 300 ng/mL), 85.96%. The “Freeze–thaw stability Mean” value in data set [3] (spiked 10 ng/mL) was 103.66%; in data set [3] (spiked 150 ng/mL) it was 111.86%; in data set [3] (spiked 300 ng/mL), 94.97%. The AUC(0-inf) in data set [4] (Sprague-Dawley) came out at 252 ± 62.5 ng·h/mL. In data set [4] (Sprague-Dawley), this compound had an AUC(0-t) of 249 ± 65.5 ng·h/mL. In addition, the peak level in data set [4] (Sprague-Dawley) (Cmax) was 169 ± 73.5 ng/mL. Further, the half-life in data set [4] (Sprague-Dawley) was 1.1 ± 0.47 h. Moreover, the MRT last in data set [4] (Sprague-Dawley) amounted to 2.44 ± 0.12 h. In addition, in data set [4] (Sprague-Dawley), the MRT inf was determined as 2.55 ± 0.21 h. Further, the time to peak (Tmax) in data set [4] (Sprague-Dawley, read-out: Tmax) stood at 2 h.
